# Reference: patent US20250213707A1, “COMPOUND FOR INCREASING EFFICACY OF ONCOLYTIC VIRUSES” (ABLEVIA BIOTECH GMBH, priority 2022, published 2025)
# System: IgG from human donors (anti-AAV antibodies)
# Assay: Screen for anti-AAV antibodies in human sera, 2452 linear 15-amino-acid AAV peptides on microarrays (Table 1)
# Type: binding
# Set-up: key to group III: X: the deduplicated aggregate of the respective top 50 peptide hits for each donor was compiled and designated as group III
# Method: 2452 linear peptides derived from the sequences of 16 different AAVs and with a sequence length of 15 amino-acids each were synthesized.
# Samples obtained from human donors were screened for antibodies against these AAV-derived peptides immobilized on microarrays. To this end, IgG was prepared from blood obtained from the human donors by protein G purification. Each IgG sample was incubated with the peptide microarrays and Ig binding signals were detected by fluorescence. All antibody binding signals to the peptides on the arrays were background subtracted and ranked for each sample and a deduplicated aggregate of the respective top 250 peptide hits for each donor with the corresponding protein sequence of origin (as obtained from UniProt or other sources) was compiled (designated as group IV). Further, the deduplicated aggregate of the respective top 50 peptide hits for each donor was compiled and designated as group III. Further, the deduplicated aggregate of the respective top 25 peptide hits for each donor was compiled and designated as group II. Finally, the deduplicated aggregate of the respective top 10 peptide hits for each donor was compiled and designated as group I.
# Altogether, group I contains 110 distinct peptide hits (assigned to the corresponding AAV vectors in Table 1), group II contains 289 distinct peptide hits, group III contains 428 distinct peptide hits and group IV contains 1271 distinct peptide hits. Evidently, group I is a subset of group II which in turn is a subset of group III which in turn is a subset of group IV. Groups I-IV correspond to the top 4.4%, […], 17.5% and 51.8%, respectively, of all peptides screened.
# [1] = X = peptide belongs to the deduplicated aggregate of the top 50 peptide hits for each donor, linear 15-amino-acid AAV peptides, IgG binding by fluorescence
# [2] = X = peptide in the deduplicated aggregate of the top 50 peptide hits for each donor (top 17.5% of all peptides screened), linear 15-amino-acid AAV peptides on microarrays, human donor IgG, fluorescence
substance,measurement,setting,value
339 (GNNFTFSYTFEDVPF; REGION 1..15: note = peptide derived from viral capsid protein) [compound 339],group III,[1],X
340 (FSYTFEDVPFHSSYA; REGION 1..15: note = peptide derived from viral capsid protein) [compound 340],group III,[1],X
341 (TFSYTFEDVPFHSSY; REGION 1..15: note = peptide derived from viral capsid protein) [compound 341],group III,[1],X
343 (TFEDVPFHSSYAHSQ; REGION 1..15: note = peptide derived from viral capsid protein) [compound 343],group III,[1],X
346 (TVAVNLQSSSTDPAT; REGION 1..15: note = peptide derived from viral capsid protein) [compound 346],group III,[1],X
347 (AVNLQSSSTDPATGD; REGION 1..15: note = peptide derived from viral capsid protein) [compound 347],group III,[1],X
348 (NHYFGYSTPWGYFDF; REGION 1..15: note = peptide derived from viral capsid protein) [compound 348],group III,[1],X
349 (GSQAVGRSSFYCLEY; REGION 1..15: note = peptide derived from viral capsid protein) [compound 349],group III,[1],X
350 (TQYSTGQVSVEIEWE; REGION 1..15: note = peptide derived from viral capsid protein) [compound 350],group III,[1],X
353 (TPWGYFDFNRFHCHF; REGION 1..15: note = peptide derived from viral capsid protein) [compound 353],group III,[1],X
354 (YFDFNRFHCHFSPRD; REGION 1..15: note = peptide derived from viral capsid protein) [compound 354],group III,[1],X
356 (YSTGQVSVEIEWELQ; REGION 1..15: note = peptide derived from viral capsid protein) [compound 356],group III,[1],X
357 (SLDRLMNPLIDQYLY; REGION 1..15: note = peptide derived from viral capsid protein) [compound 357],group III,[1],X
359 (SVPDPQPLGEPPATP; REGION 1..15: note = peptide derived from viral capsid protein) [compound 359],group III,[1],X
361 (YSTPWGYFDFNRFHC; REGION 1..15: note = peptide derived from viral capsid protein) [compound 361],group III,[1],X
362 (AHQGCLPPFPADVFM; REGION 1..15: note = peptide derived from viral capsid protein) [compound 362],group III,[1],X
363 (ASFITQYSTGQVSVE; REGION 1..15: note = peptide derived from viral capsid protein) [compound 363],group III,[1],X
366 (MVWQDRDVYLQGPIW; REGION 1..15: note = peptide derived from viral capsid protein) [compound 366],group III,[1],X
369 (EYQLPYVLGSAHQGC; REGION 1..15: note = peptide derived from viral capsid protein) [compound 369],group III,[1],X
370 (FITQYSTGQVSVEIE; REGION 1..15: note = peptide derived from viral capsid protein) [compound 370],group III,[1],X
380 (SSYAHSQSLDRLMNP; REGION 1..15: note = peptide derived from viral capsid protein) [compound 380],group III,[1],X
382 (FHSSYAHSQSLDRLM; REGION 1..15: note = peptide derived from viral capsid protein) [compound 382],group III,[1],X
383 (FNGLDKGEPVNAADA; REGION 1..15: note = peptide derived from viral capsid protein) [compound 383],group III,[1],X
384 (HSSYAHSQSLDRLMN; REGION 1..15: note = peptide derived from viral capsid protein) [compound 384],group III,[1],X
385 (TTSTRTWALPTYNNH; REGION 1..15: note = peptide derived from viral capsid protein) [compound 385],group III,[1],X
406 (NNNSEFAWPGASSWA; REGION 1..15: note = peptide derived from viral capsid protein) [compound 406],group III,[2],X
407 (NTPVPADPPTAFNKD; REGION 1..15: note = peptide derived from viral capsid protein) [compound 407],group III,[2],X
408 (STTVTQNNNSEFAWP; REGION 1..15: note = peptide derived from viral capsid protein) [compound 408],group III,[2],X
410 (ENVPFHSSYAHSQSL; REGION 1..15: note = peptide derived from viral capsid protein) [compound 410],group III,[2],X
411 (ILIKNTPVPADPPTA; REGION 1..15: note = peptide derived from viral capsid protein) [compound 411],group III,[2],X
414 (GNGLDKGEPVNAADA; REGION 1..15: note = peptide derived from viral capsid protein) [compound 414],group III,[2],X
416 (LNSFITQYSTGQVSV; REGION 1..15: note = peptide derived from viral capsid protein) [compound 416],group III,[2],X
424 (ENSKRWNPEIQYTSN; REGION 1..15: note = peptide derived from viral capsid protein) [compound 424],group III,[2],X
425 (ELQKENSKRWNPEIQ; REGION 1..15: note = peptide derived from viral capsid protein) [compound 425],group III,[2],X
428 (PVATEEYGIVADNLQ; REGION 1..15: note = peptide derived from viral capsid protein) [compound 428],group III,[2],X
430 (NTPVPADPPTTFNQS; REGION 1..15: note = peptide derived from viral capsid protein) [compound 430],group III,[2],X
431 (EIKTTNPVATEEYGI; REGION 1..15: note = peptide derived from viral capsid protein) [compound 431],group III,[2],X
432 (GSSSGNWHCDSTWLG; REGION 1..15: note = peptide derived from viral capsid protein) [compound 432],group III,[2],X
434 (TNPVATEEYGIVADN; REGION 1..15: note = peptide derived from viral capsid protein) [compound 434],group III,[2],X
438 (TTGGTANTQTLGFSQ; REGION 1..15: note = peptide derived from viral capsid protein) [compound 438],group III,[2],X
445 (NNSNFAWTAGTKYHL; REGION 1..15: note = peptide derived from viral capsid protein) [compound 445],group III,[2],X
